Where a SMILES comes first, the peptide text is derived from it.
Key:
[1] = tested on: traumatic osteoarthritis model; test: MMT surgery traumatic osteoarthritis model, test for preventive efficacy; type: in vivo, SD rats; details: compared to the OA group; intra-articular injection 3 days and 1 day before MMT surgery; 0.1 mg/kg; sacrificed day 7
Procedure: In this example, a traumatic osteoarthritis model was established by performing a medial meniscus tear (MMT) surgery to verify the preventive effect of the PACE4 inhibitory peptides on OA. In the test for preventive efficacy, the PACE4 inhibitory peptide was administered via intra-articular injection 3 days and 1 day before the modeling surgery (i.e., a total of 2 administrations). In the following examples, the dosage of PACE4 inhibitory peptide was 0.1 mg/kg animal body weight.
Specifically, in the test for preventive efficacy, 24 SD rats were divided into 3 groups (including a control group, an OA modeling group (surgery group), and an OA modeling + preventive administration group (surgery group + drug intervention)), with 8 rats per group. For the OA modeling + preventive administration group, intra-articular injections were administered 3 days and 1 day before MMT surgery. Rats in each group were sacrificed on day 7 after modeling, and joint tissues were collected. Each PACE4 inhibitory peptide was tested individually to determine the preventive effect of each PACE4 inhibitory peptide. Among them, the polypeptide Ac-R-F-K-R-NH2 (control molecule) was selected as a control example. […]

[2] = tested on: traumatic osteoarthritis model; test: MMT surgery traumatic osteoarthritis model, test for therapeutic efficacy; type: in vivo, Sprague Dawley (SD) rats; details: compared to the OA group; intra-articular injection on day 3 and day 10 after MMT surgery; sacrificed day 14
Procedure: In this example, a traumatic osteoarthritis model was established by performing a medial meniscus tear (MMT) surgery to verify the therapeutic effect of the PACE4 inhibitory peptides on OA. In the test for therapeutic efficacy, the injections were administered on day 3 and day 10 after the surgical modeling (i.e., a total of 2 administrations).
Specifically, in the test for therapeutic efficacy, 24 Sprague Dawley (SD) rats were divided into 3 groups (including a control group, an OA modeling group (surgery group), and an OA modeling + therapeutic administration group (surgery group + drug intervention)), with 8 rats per group. For the OA modeling + therapeutic administration group, intra-articular injections were administered on day 3 and day 10 after MMT surgery. Rats in each group were sacrificed on day 14 after modeling, and joint tissues were collected. Each PACE4 inhibitory peptide was tested individually to determine the therapeutic effect of each PACE4 inhibitory peptide. Among them, the polypeptide Ac-R-F-K-R-NH2 (control molecule) was selected as a control example.
Cartilage tissue was collected from each group as samples. The collected cartilage tissue samples were decalcified according to conventional procedures in the art, then embedded in paraffin, and sectioned at a thickness of 7 µm. Safranin O-fast green staining was performed, and the cartilage degeneration was assessed using OARSI scoring. In addition, TRAP staining was performed to determine the subchondral bone resorption in rats before and after MMT surgery and during treatment with the PACE4 inhibitory peptide.

Compound: CC(=O)N[C@@H](CCCNC(=N)N)C(=O)N[C@@H](Cc1ccccc1)C(=O)N[C@@H](CCCCN)C(=O)N[C@@H](CCCNC(=N)N)C(N)=O [Ac-R-F-K-R-NH2] (Ac-RFKR-NH2)
- OARSI score reduced, preventive test [1]: 4%
- OARSI score reduced, therapeutic test [2]: 10%
